From patent US5663182A, “Antipsychotic method” (priority 1996, dated 1997)
Where a name gives a salt, the structure may show the parent alone.

Legend:
[1] = molecular target: muscarinic receptors; assay: 3H-oxotremorine-M binding assay; conditions: 3 nM 3H-oxotremorine-M, rat cerebral cortical membranes, 15 min 25° C.; read-out: Inhibition of 3H-Oxo
Procedure: Each compound was tested to determine the affinity of the compound for the muscarinic receptors using the following procedure.
For each in vitro binding, male Sprague-Dawley (Harlan Sprague-Dawley, Indianapolis, Ind.) rats weighing from about 100 to about 150 grams each were sacrificed by decapitation. The brains were quickly removed and the cerebral cortex were dissected from the brain. The cerebral cortex tissue was homogenized in 10 volumes of 0.32 M sucrose and […] about 10 minutes at about 1000 x g. The supernatant was centrifuged at about 12,000 x g for about 10 minutes and the resulting pellet was resuspended in 20 mM tris-Cl, pH 7.4. The resuspended pellet was centrifuged again for about 10 minutes at about 50,000 x g. The resulting homogenate was preincubated for about 10 minutes at about 25° C. and centrifuged again for about 10 minutes at about 50,000 x g. The pellet was resuspended at 1 gram of pellet per 3 ml of buffer and frozen at about -80° C. until used.
The aforementioned homogenates mixture was incubated for about 15 minutes at about 25° C. and then the homogenates were filtered through glass filters (Whatman, GF/C) with vacuum. The filters were washed 3 times with about 2 ml of cold tris-Cl buffer, and placed in scintillation vials containing about 10 ml of scintillation fluid (Ready Protein+, Beckman, Fullerton, Calif.). Radioactivity trapped on the filters was determined by liquid scintillation spectrometry. Nonspecific binding was determined using 1 μM atropine. […] DeLean, A. et al. Am.

[2] = test system: Rats; assay: Conditioned avoidance behavior in rats; format: in vivo, rat; conditions: screening dose 3.0 mg/kg s.c. 30 min before session
Description: In a conditioned avoidance test, animals learn to respond during a conditioned stimulus in order to avoid mild shock presentation. A response during the conditioned stimulus is termed an avoidance respone, a response during shock is termed an escape response; a response failure is when the animal fails to respond during either the conditioned stimlus or the shock presentation and is indicative of motor impairment. […] Antipsychotic drugs decrease the percentage of avoidance responses without interfering with the ability of the animal to respond since the animals do emit escape responses. The percentage of response failures is considered a measure of motor impairment.
Rats were required to press a response lever in an experimental chamber in order to avoid or escape foot-shock. Each experimental session consisted of 50 trials. During each trial, the chamber was illuminated and a tone presented for a maximum of 10 sec. A response during the tone immediately terminated the tone and the houselight, ending the trial. In the absence of a response during the tone alone, tone+foot-shock (2.0 mA) was presented for a maximum of 10 sec. A response during shock presentation immediately terminated the shock, the tone and the houselight, ending the trial.
For drug screening, a dose of 3.0 mg/kg was administered s.c. 30 min before the start of the experimental session.

| Compound | IC50 [1] [nM] | Conditioned Avoidance % Avoidance Responses [2] [%] | Conditioned Avoidance % Avoidance Responses ([2]; 3 mg/kg) [%] |
| --- | --- | --- | --- |
| CCOc1nsnc1[C@H]1CN2CCC[C@H]1C2 (relative stereo) [Compound 19, Exo-6-(3-ethoxy-1,2,5-thiadiazol-4-yl)-1-azabicyclo[3.2.1]octane oxalate] | 1.2 | 73 |  |
| CCCCCCSc1nsnc1[C@H]1CN2CCC[C@H]1C2 (relative stereo) [Compound 29, Exo-6-(3-hexylthio-1,2,5-thiadiazol-4-yl)-1-azabicyclo[3.2.1]octane oxalate] | 1.2 | 29 |  |
| CCCCSc1nsnc1[C@H]1CN2CCC[C@H]1C2 (relative stereo) [Compound 30, Exo-6-(3-butylthio-1,2,5-thiadiazol-4-yl)-1-azabicyclo[3.2.1]octane oxalate] | 0.4 | 32 |  |
| CCCCCSc1nsnc1[C@H]1CN2CCC[C@H]1C2 (relative stereo) [Compound 31, Exo-6-(3-pentylthio-1,2,5-thiadiazol-4-yl)-1-azabicyclo[3.2.1]octane oxalate] | 1.8 | 1 |  |
| CCSc1nsnc1[C@H]1CN2CCC[C@H]1C2 (relative stereo) [Compound 32, Exo-6-(3-ethylthio-1,2,5-thiadiazol-4-yl)-1-azabicyclo[3.2.1]octane oxalate] | 1.3 | 46 |  |
| CCCSc1nsnc1[C@H]1CN2CCC[C@H]1C2 (relative stereo) [Compound 58, Exo-6-(3-propylthio-1,2,5-thiadiazol-4-yl)-1-azabicyclo[3.2.1]octane oxalate] | 0.8 | 41 |  |
| CCCCCOc1nsnc1[C@H]1CN2CCC[C@H]1C2 (relative stereo) [Compound 59, Exo-6-(3-pentyloxy-1,2,5-thiadiazol-4-yl)-1-azabicyclo[3.2.1]octane oxalate] | 1 | 12 |  |
| CSc1nsnc1[C@H]1CN2CCC[C@H]1C2 (relative stereo) [Compound 74, Exo-6-(3-methylthio-1,2,5-thiadiazol-4-yl)-1-azabicyclo[3.2.1]octane oxalate] | 1.4 | 22 |  |
| CC(C)CCCSc1nsnc1[C@H]1CN2CCC[C@H]1C2 (relative stereo) [Compound 76, Exo-6-(3-isohexylthio-1,2,5-thiadiazol-4-yl)-1-azabicyclo[3.2.1]octane oxalate] | 7.7 | 28 |  |
| CC(C)CCSc1nsnc1[C@H]1CN2CCC[C@H]1C2 (relative stereo) [Compound 77, Exo-6-(3-isopentylthio-1,2,5-thiadiazol-4-yl)-1-azabicyclo[3.2.1]octane] | 2.7 | 85 |  |
| N#Cc1ccc(CSc2nsnc2[C@H]2CN3CCC[C@H]2C3)cc1 (relative stereo) [Compound 82, Exo-6-(3-(4-cyanobenzylthio)-1,2,5-thiadiazol-4-yl)-1-azabicyclo[3.2.1]octane oxalate] | 1.3 | 24 |  |
| CCCOc1nsnc1[C@H]1CN2CCC[C@H]1C2 (relative stereo) [Compound 119, Exo-6-(3-propoxy-1,2,5-thiadiazol-4-yl)-1-azabicyclo[3.2.1]octane oxalate] | 0.9 | 29 |  |
| CCCCOc1nsnc1[C@H]1CN2CCC[C@H]1C2 (relative stereo) [Compound 120, Exo-6-(3-butoxy-1,2,5-thiadiazol-4-yl)-1-azabicyclo[3.2.1]octane oxalate] | 0.9 | 27 |  |
| CCCCCCOc1nsnc1[C@H]1CN2CCC[C@H]1C2 (relative stereo) [Compound 122, Exo-6-(3-hexyloxy-1,2,5-thiadiazol-4-yl)-1-azabicyclo[3.2.1]octane oxalate] | 2.1 | 1 |  |
| c1ccc(OCCSc2nsnc2[C@H]2CN3CCC[C@H]2C3)cc1 (relative stereo) [Compound 133, Exo-6-(3-(2-phenoxyethylthio)-1,2,5-thiadiazol-4-yl)-1-azabicyclo[3.2.1]octane oxalate] | 1.3 | 1 |  |
| CCCCSc1nsnc1C1CN2CCC1CC2.O=C(O)C(O)C(O)C(=O)O (single isomer, unassigned) [Compound 56, (+) 3-(3-Butylthio-1,2,5-thiadiazol-4-yl)-1-azabicyclo[2.2.2]octane (-)D-tartrate] | 0.4 | 6 |  |
| CCCCSc1nsnc1C1CN2CCCC1C2 (single isomer, unassigned) [Compound 111, (-)-Exo-6-(3-butylthio-1,2,5-thiadiazol-4-yl)-1-azabicyclo[3.2.1]octane (+) L-tartrate] | 1 |  | 8 |
| CCCCSc1nsnc1C1CN2CCCC1C2 (single isomer, unassigned) [Compound 112, (+)-Exo-6-(3-butylthio-1,2,5-thiadiazol-4-yl)-1-azabicyclo[3.2.1]octane (-) D-tartrate] | 0.6 |  | 2 |
| CCCSc1nsnc1C1CN2CCCC1C2 (single isomer, unassigned) [Compound 114, (+)-Exo-6-(3-propylthio-1,2,5-thiadiazol-4-yl)-1-azabicyclo[3.2.1]octane (-) D-tartrate] | 0.45 |  | 39 |
| CCCSc1nsnc1C1CN2CCCC1C2 (single isomer, unassigned; (+)) [Compound 113, (+)-Exo-6-(3-propylthio-1,2,5-thiadiazol-4-yl)-1-azabicyclo[3.2.1]octane (+) L-tartrate] | 0.8 |  | 19 |
| FC(F)(F)CCCSc1nsnc1C1CN2CCCC1C2 (single isomer, unassigned; (+)) [Compound 167, (+)-Exo-6-(3-(4,4,4-trifluorobutylthio)-1,2,5-thiadiazol-4-yl)-1-azabicyclo-[3.2.1]octane oxalate] | 0.76 |  | 56 |
| FC(F)(F)CCCSc1nsnc1C1CN2CCCC1C2 (single isomer, unassigned; (-)) [Compound 130, (-)-Exo-6-(3-(4,4,4-trifluoro-1-butylthio)-1,2,5-thiadiazol-4-yl)-1-azabicyclo[3.2.1]octane oxalate] | 1.8 |  | 43 |
| CCOc1nsnc1C1CN2CCC1CC2.O=C(O)/C=C/C(=O)O (centres unmarked) [Compound 9, 3-(3-Ethoxy-1,2,5-thiadiazol-4-yl)-1-azabicyclo[2.2.2]octane fumarate] | 2.1 | 65 |  |
| CCCCCCOc1nsnc1C1CN2CCC1CC2.O=C(O)/C=C/C(=O)O (centres unmarked) [Compound 11, 3-(3-Hexyloxy-1,2,5-thiadiazol-4-yl)-1-azabicyclo[2.2.2]octane fumarate] | 6 | 11 |  |
| CCCCSc1nsnc1C1CN2CCC1CC2.O=C(O)/C=C/C(=O)O (centres unmarked) [Compound 13, 3-(3-Butylthio-1,2,5-thiadiazol-4-yl)-1-azabicyclo[2.2.2]octane fumarate] | 1.9 | 18 |  |
